The record followed here is patent publication US10266497B2 (ABIDE THERAPEUTICS, INC., priority 2017, dated 2019).

The target of assay [1] is T1, MAGL (Homo sapiens, UniProt Q99685).
T1 sequence (Q99685 1-303): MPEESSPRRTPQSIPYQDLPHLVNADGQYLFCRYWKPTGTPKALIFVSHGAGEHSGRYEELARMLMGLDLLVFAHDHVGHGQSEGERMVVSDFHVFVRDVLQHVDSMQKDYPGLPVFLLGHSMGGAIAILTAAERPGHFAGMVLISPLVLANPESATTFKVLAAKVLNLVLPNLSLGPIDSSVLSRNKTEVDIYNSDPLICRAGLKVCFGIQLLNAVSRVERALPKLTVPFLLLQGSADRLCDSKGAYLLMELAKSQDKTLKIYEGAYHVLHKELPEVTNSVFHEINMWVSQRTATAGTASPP
Description: In vitro competitive activity-based protein profiling, MAGL, human. Conditions: read-out: MAGL % inh. 1 μM (human).

For assay [2], the target named is T2, MAGL (Mus musculus, UniProt O35678).
T2 sequence (O35678 1-303): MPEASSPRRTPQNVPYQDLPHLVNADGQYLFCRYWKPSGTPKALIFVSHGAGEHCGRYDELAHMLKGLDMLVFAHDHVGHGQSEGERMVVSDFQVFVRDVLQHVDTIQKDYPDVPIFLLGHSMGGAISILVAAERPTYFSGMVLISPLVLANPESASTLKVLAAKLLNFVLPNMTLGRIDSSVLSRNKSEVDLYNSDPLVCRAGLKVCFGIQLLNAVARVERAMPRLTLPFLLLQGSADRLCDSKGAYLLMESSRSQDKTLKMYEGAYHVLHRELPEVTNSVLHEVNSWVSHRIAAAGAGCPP
Briefly: In vitro competitive activity-based protein profiling, MAGL, mouse. Conditions: read-out: MAGL % inh. 1 μM (mouse).

Assay [3] concerns the target T3, FAAH (Homo sapiens, UniProt O00519).
T3 sequence (O00519 1-579): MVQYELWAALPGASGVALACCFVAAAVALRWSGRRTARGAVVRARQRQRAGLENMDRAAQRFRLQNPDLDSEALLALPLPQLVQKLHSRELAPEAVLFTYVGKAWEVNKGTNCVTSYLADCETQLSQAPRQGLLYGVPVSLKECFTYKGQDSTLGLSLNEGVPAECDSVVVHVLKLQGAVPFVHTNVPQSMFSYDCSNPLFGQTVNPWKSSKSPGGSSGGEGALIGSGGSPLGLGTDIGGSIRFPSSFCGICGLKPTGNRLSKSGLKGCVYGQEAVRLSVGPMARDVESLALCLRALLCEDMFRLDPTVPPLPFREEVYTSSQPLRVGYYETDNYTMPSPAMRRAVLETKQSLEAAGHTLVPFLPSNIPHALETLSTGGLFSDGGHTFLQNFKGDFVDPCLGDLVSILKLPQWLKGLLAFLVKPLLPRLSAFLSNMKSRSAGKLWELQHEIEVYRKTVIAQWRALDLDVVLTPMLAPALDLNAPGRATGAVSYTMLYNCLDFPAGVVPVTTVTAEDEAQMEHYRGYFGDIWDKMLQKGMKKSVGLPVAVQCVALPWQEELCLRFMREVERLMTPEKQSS
Description: In vitro competitive activity-based protein profiling, FAAH, human. To be noted: for inhibition at 1 µM: read-out: FAAH % inh. 1 μM (human).

Assay [4] concerns the target T4, FAAH (Mus musculus, UniProt O08914).
T4 sequence (O08914 1-579): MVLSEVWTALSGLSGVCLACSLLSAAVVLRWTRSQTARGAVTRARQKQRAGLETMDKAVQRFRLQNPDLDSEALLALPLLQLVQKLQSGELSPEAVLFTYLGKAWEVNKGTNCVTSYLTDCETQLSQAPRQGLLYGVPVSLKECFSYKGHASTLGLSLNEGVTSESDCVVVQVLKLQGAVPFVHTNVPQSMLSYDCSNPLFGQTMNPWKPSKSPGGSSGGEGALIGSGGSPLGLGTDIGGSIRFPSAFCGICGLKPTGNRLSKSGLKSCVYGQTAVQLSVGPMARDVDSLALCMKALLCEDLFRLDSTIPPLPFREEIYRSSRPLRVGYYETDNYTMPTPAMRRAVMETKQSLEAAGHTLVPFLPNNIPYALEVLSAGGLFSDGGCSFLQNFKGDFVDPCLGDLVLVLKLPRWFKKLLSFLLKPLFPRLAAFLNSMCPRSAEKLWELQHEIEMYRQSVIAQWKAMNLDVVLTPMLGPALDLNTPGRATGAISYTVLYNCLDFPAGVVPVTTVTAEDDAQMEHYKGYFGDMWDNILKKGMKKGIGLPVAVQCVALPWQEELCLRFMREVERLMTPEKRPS
Description: In vitro competitive activity-based protein profiling, FAAH, mouse. To be noted: read-out: FAAH % inh. 1 μM (mouse).

Assay [5] addresses T2, MAGL. Briefly: Mouse brain proteomes from inhibitor treated mice (oral gavage, sacrificed 4 h after administration). It counts as in vivo. Also on record: mouse brain membrane fraction for mouse assays; from tissue; host or cells: mouse brain (membrane fraction in vitro; brain proteomes of treated C57Bl/6J mice in vivo). Conditions: 5 mg/kg oral gavage, brain proteome 4 h after administration, read-out: MAGL % inh. 5 mg/kg (mouse).

Assay [6] concerns the target T4, FAAH. Description: Mouse brain proteomes from inhibitor treated mice (oral gavage, sacrificed 4 h after administration), FAAH. Type of assay: in vivo. Also noted: mouse brain membrane fraction for mouse assays; from tissue; host or cells: mouse brain (membrane fraction in vitro; brain proteomes of treated C57Bl/6J mice in vivo). To be noted: 5 mg/kg oral gavage, brain proteome 4 h after administration, read-out: FAAH % inh. 5 mg/kg (mouse).

A value given as a limit tells only on which side of the number the result lay.

For `O=C(O)c1ccn(C(=O)N2CCN(Cc3cc4cc(Cl)ccc4s3)CC2)n1` [Example 187, 1-(4-((5-chlorobenzo[b]thio-phen-2-yl)methyl)piperazine-1-carbonyl)-1H-pyrazole-3-carboxylic acid], the inhibition at 1 µM was above 75% on MAGL [1], above 75% at MAGL [2], 25 to 50% at FAAH [3] and 0 to 25% at FAAH [4]. Besides, the inhibition at 5 mg/kg at MAGL [5] and at FAAH [6] was 0 to 25% throughout.

Take `O=C(O)c1ccn(C(=O)N2CCC3(CCCN3Cc3cc4ccc(C(F)(F)F)cc4s3)CC2)n1` [Example 185, 1-(1-((6-(trifluoromethyl)benzo[b]thiophen-2-yl)methyl)-1,8-diazaspiro[4.5]decane-8-carbonyl)-1H-pyrazole-3-carboxylic acid]: the inhibition at 1 µM on MAGL [1] is above 75%; on MAGL [2], above 75%; at FAAH [3], 0 to 25%; at FAAH [4], 0 to 25%. Also, the inhibition at 5 mg/kg at MAGL [5] and on FAAH [6] was 0 to 25% throughout.

By IC50 is commonly meant the point on the concentration scale where inhibition reaches its midpoint. Low values mean higher potency, high ones lower potency. `O=C(O)c1ccn(C(=O)N2CC3CN(Cc4cc(Cl)cc(C(F)(F)F)c4)CC3C2)n1` (stereo not shown) [Example 124, 1-(5-(3-chloro-5-(trifluoromethyl)benzyl)octahydro-pyrrolo[3,4-c]pyrrole-2-carbonyl)-1H-pyrazole-3-carboxylic acid]: the inhibition at 1 µM at MAGL [1] was above 75%; on MAGL [2], above 75%; on FAAH [3] it was 50 to 75%; on FAAH [4] it was above 75%. Moreover, the half-maximal inhibitory concentration (IC50) on FAAH [3] lay in the range of 100 to 1000 nM. For the same compound, the inhibition at 5 mg/kg lay in the range of 0 to 25% at MAGL [5] and 25 to 50% at FAAH [6].

For the compound `O=C(O)c1ccn(C(=O)N2CCC3(CCN(Cc4cc(Cl)ccc4C(F)(F)F)C3)CC2)n1` [Example 43, 1-(2-(5-chloro-2-(trifluoromethyl)benzyl)-2,8-diazaspiro[4.5]decane-8-carbonyl)-1H-pyrazole-3-carboxylic acid], the inhibition at 1 µM was above 75% on MAGL [1], above 75% at MAGL [2], 50 to 75% on FAAH [3] and above 75% on FAAH [4]. Besides, the IC50 on FAAH [3] lay within 1000 to 10000 nM. Also, the inhibition at 5 mg/kg at MAGL [5] and at FAAH [6] was 0 to 25% each time.

As for `O=C(O)c1ccn(C(=O)N2C[C@H]3C[C@H](OCc4cccc(Oc5ccc(Cl)cc5)c4)C[C@H]3C2)n1` [Example 158, 1-(trans-5-((3-(4-chlorophenoxy)benzyl)oxy)octa-hydrocyclopenta[c]pyrrole-2-carbonyl)-1H-pyrazole-3-carboxylic acid], the inhibition at 1 µM on MAGL [1], at MAGL [2], at FAAH [3] and at FAAH [4] was above 75% each time. Moreover, the inhibition at 5 mg/kg at MAGL [5] and at FAAH [6] was 0 to 25% in each case.

For the compound `O=C(O)c1ccn(C(=O)N2CCC3(CCCN3Cc3cc(Cl)cc(C(F)(F)F)c3)CC2)n1` [Example 86, 1-(1-(3-chloro-5-(trifluoromethyl)benzyl)-1,8-diazaspiro[4.5]decane-8-carbonyl)-1H-pyrazole-3-carboxylic acid], the inhibition at 1 µM at MAGL [1] was above 75%; at MAGL [2], above 75%; at FAAH [3], 0 to 25%; at FAAH [4], 0 to 25%. The inhibition at 5 mg/kg at MAGL [5] and on FAAH [6] was 0 to 25% each time.

For `C[C@@H]1CCCN1c1cc(C(F)(F)F)ccc1CN1CCN(C(=O)n2ccc(C(=O)O)n2)CC1` [Example 95, (R)-1-(4-(2-(2-methylpyrrolidin-1-yl)-4-(trifluoromethyl)benzyl)piperazine-1-carbonyl)-1H-pyrazole-3-carboxylic acid], the inhibition at 1 µM was above 75% on MAGL [1], above 75% on MAGL [2], 0 to 25% at FAAH [3] and 0 to 25% on FAAH [4]. Also, the inhibition at 5 mg/kg at MAGL [5] and on FAAH [6] was 0 to 25% each time.

Take `O=C(O)c1ccn(C(=O)N2CCN(Cc3ccc(C(F)(F)F)cc3N3CCCC3)CC2)n1` [Example 83, 1-(4-(2-(pyrrolidin-1-yl)-4-(trifluoromethyl)benzyl)piperazine-1-carbonyl)-1H-pyrazole-3-carboxylic acid]: the inhibition at 1 µM on MAGL [1] was above 75%; on MAGL [2], above 75%; on FAAH [3] it was 0 to 25%; on FAAH [4] it was 0 to 25%. At FAAH [3], this compound had an IC50 of 1000 to 10000 nM. In addition, the inhibition at 5 mg/kg on MAGL [5] and at FAAH [6] was 0 to 25% in each case.

`O=C(O)c1ccn(C(=O)N2CCN(Cc3cccc(Oc4ccc(Cl)cc4)c3)CC2)n1` [Example 98, 1-(4-(3-(4-chlorophenoxy)benzyl)piperazine-1-carbonyl)-1H-pyrazole-3-carboxylic acid]: the inhibition at 1 µM at MAGL [1], on MAGL [2], at FAAH [3] and on FAAH [4] was above 75% each time. At FAAH [3], this compound displayed an IC50 of 100 to 1000 nM. Further, the inhibition at 5 mg/kg at MAGL [5] and at FAAH [6] was 0 to 25% in each case.

In the case of `CC(=O)NC1CCN(c2cc(C(F)(F)F)ccc2CN2CCN(C(=O)n3ccc(C(=O)O)n3)CC2)CC1` [Example 119, 1-(4-(2-(4-acetamidopiperidin-1-yl)-4-(trifluoromethyl)benzyl)piperazine-1-carbonyl)-1H-pyrazole-3-carboxylic acid], the inhibition at 1 µM was above 75% at MAGL [1], above 75% at MAGL [2], 0 to 25% at FAAH [3] and 0 to 25% at FAAH [4]. Also, the inhibition at 5 mg/kg on MAGL [5] and on FAAH [6] was 0 to 25% each time.

For the compound `O=C(O)c1ccn(C(=O)N2CCN(Cc3ccc(Cl)cc3N3CCCC3)CC2)n1` [Example 107, 1-(4-(4-chloro-2-(pyrrolidin-1-yl)benzyl)piperazine-1-carbonyl)-1H-pyrazole-3-carboxylic acid], the inhibition at 1 µM on MAGL [1] was above 75%; on MAGL [2], above 75%; on FAAH [3], 0 to 25%; on FAAH [4] it was 0 to 25%. For the same compound, the inhibition at 5 mg/kg on MAGL [5] and on FAAH [6] was 0 to 25% throughout.
